Assay results as given in patent publication EP0252524A2, “Aryl- and aralkylamide- derivatives of Omega- (substituted-phenyloxy)-alkanoic acids as inhibitors of acyl-coa: cholesterol acyltransferase and pharmaceuticals containing them” (WARNER-LAMBERT COMPANY, priority 1986, dated 1988).

These compounds were tested against acyl-CoA:cholesterol acyltransferase (ACAT) (assay: in vitro ACAT inhibition test: radio-labeled cholesteryl oleate formed from radio-labeled oleic acid in intestinal microsomes). Conditions: concentration required to inhibit cholesteryl oleate formation to 50% of control; tissue preparation containing rabbit intestinal microsomes.
Type: biochemical
Method: The ability of representative compounds of the present invention to inhibit ACAT was measured using an in vitro test more fully described in Field, F. J. and Salone, R. G., Biochemica et Biophysica 712: 557-570 (1982). The test assesses the ability of a test compound to inhibit the acylation of cholesterol by oleic acid by measuring the amount of radio-labeled cholesterol oleate formed from radio-labeled oleic acid in a tissue preparation containing rabbit intestinal microsomes.
The data appear in the Table where they are expressed as IC₅₀ values; i.e. the concentration of test compound required to inhibit cholesteryl oleate formation to 50% of control.

SMILES | IC50 [nM]
CCCCc1ccc(OCCCC(C)(C)C(=O)Nc2c(OC)cc(OC)cc2OC)cc1 [Example 4, 5-(4-butylphenoxy)-2,2-dimethyl-N-(2,4,6-trimethoxyphenyl)-pentanamide] | 460
COc1cc(OC)c(NC(=O)C(C)(C)CCCOc2ccc(C(C)(C)C)cc2)c(OC)c1 [Example 10, 5-[4-(1,1-dimethylethyl)phenoxy]-2,2-dimethyl-N-(2,4,6-trimethoxyphenyl)pentanamide] | 44
CCCCc1ccc(OCCCC(C)(C)C(=O)Nc2c(OC)ncnc2OC)cc1 [Example 7, 5-(4-butylphenoxy)-N-(4,6-dimethoxy-5-pyrimidinyl)-2,2-dimethylpentanamide] | 9000
CC(NC(=O)C(C)(C)CCCOc1ccc(C(C)(C)C)cc1)c1ccccn1 (centres unmarked) [Example 12, 5-[4-(1,1-dimethylethyl)phenoxy]-2,2-dimethyl-N-[1-(2-pyridinyl)ethyl]pentanamide] | 700
CCC(C)(C)c1ccc(OCCCC(C)(C)C(=O)NC(C)c2ccccn2)cc1 (centres unmarked) [Example 13, 5-[4-(1,1-dimethylpropyl)phenoxy]-2,2-dimethyl-N-[1-(2-pyridinyl)ethyl]pentanamide] | 160
Cc1ccc(OCCCC(C)(C)C(=O)NC(C)c2ccccn2)cc1 (centres unmarked) [Example 1, 2,2-dimethyl-5-(4-methylphenoxy)-N-[1-(2-pyridinyl)ethyl]pentanamide] | 4800
Cc1ccc(NC(=O)C(C)(C)CCCOc2ccc(C(C)(C)C)cc2)c(C)c1 [Example 8, 5-[4-(1,1-dimethylethyl)phenoxy]-N-(2,4-dimethylphenyl)-2,2-dimethylpentanamide] | 1400
CCCCCCCCc1ccc(OCCCC(C)(C)C(=O)Nc2c(OC)cc(OC)cc2OC)cc1 [Example 16, 2,2-dimethyl-5-(4-octylphenoxy)-N-(2,4,6-trimethoxyphenyl)pentanamide] | 800
CC(C)(CCCOc1ccc(C(C)(C)C)cc1)C(=O)Nc1ccc(F)cc1F [Example 9, N-(2,4-difluorophenyl)-5-[4-(1,1-dimethylethyl)phenoxy]-2,2-dimethylpentanamide] | 1200
CCCCc1ccc(OCCCC(C)(C)C(=O)NC(C)c2ccccn2)cc1 (centres unmarked) [Example 5, 5-(4-butylphenoxy)-2,2-dimethyl-N-[1-(2-pyridinyl)ethyl]pentanamide] | 800
CCCCCCCCc1ccc(OCCCC(C)(C)C(=O)NC(C)c2ccccn2)cc1 (centres unmarked) [Example 17, 2,2-dimethyl-5-(4-octylphenoxy)-N-[1-(2-pyridinyl)ethyl]pentanamide] | 450
CCCCc1ccc(OCCCC(C)(C)C(=O)Nc2ccc(C)cc2OC)cc1 [Example 3, 5-(4-butylphenoxy)-N-(2-methoxy-4-methylphenyl)-2,2-dimethylpentanamide] | 2400
CCCCc1ccc(OCCCC(C)(C)C(=O)Nc2ccccc2OC)cc1 [Example 2, 5-(4-butylphenoxy)-N-(2-methoxyphenyl)-2,2-dimethylpentanamide] | 4300
CCCCCCc1ccc(OCCCC(C)(C)C(=O)NC(C)c2ccccn2)cc1 (centres unmarked) [Example 15, 5-(4-hexylphenoxy)-2,2-dimethyl-N-[1-(2-pyridinyl)ethyl]pentanamide] | 700
